Values belong to the compound of their own block, whether it stands above or below them.
Molecular target: T1, 5-Lipoxygenase (Homo sapiens, UniProt P09917)
T1 construct: Human heparinized whole blood was preincubated with test compounds; endogenous in cells; host or cells: human heparinized whole blood (endogenous enzyme of the blood cells)
T1 sequence (P09917 1-674): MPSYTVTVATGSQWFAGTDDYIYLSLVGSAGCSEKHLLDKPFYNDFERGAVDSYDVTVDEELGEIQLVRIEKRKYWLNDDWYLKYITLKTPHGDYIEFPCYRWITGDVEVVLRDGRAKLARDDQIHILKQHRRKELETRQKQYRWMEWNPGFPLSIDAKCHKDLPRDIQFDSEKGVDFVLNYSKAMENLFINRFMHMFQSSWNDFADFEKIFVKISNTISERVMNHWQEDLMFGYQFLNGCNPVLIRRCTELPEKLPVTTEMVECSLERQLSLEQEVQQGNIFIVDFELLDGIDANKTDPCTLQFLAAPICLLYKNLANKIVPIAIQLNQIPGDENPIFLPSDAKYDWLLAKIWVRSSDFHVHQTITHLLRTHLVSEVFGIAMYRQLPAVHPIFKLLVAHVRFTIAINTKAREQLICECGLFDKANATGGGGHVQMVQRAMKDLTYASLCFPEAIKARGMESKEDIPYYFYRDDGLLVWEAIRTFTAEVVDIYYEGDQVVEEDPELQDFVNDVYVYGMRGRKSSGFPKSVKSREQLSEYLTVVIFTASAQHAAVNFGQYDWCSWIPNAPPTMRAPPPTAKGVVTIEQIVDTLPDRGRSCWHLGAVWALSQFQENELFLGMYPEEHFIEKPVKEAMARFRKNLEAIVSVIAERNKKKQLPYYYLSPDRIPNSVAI
Assay: Inhibition of calcium ionophore A23187-induced LTB4 biosynthesis in human whole blood (5-lipoxygenase inhibition)
Type: cell-based
Conditions: A23187 8.3 μM; for inhibition at 0.1 µM: @ 0.10 μM
Procedure: Lipoxygenase Inhibition Determination
Inhibition of leukotriene biosynthesis was evaluated in an assay, involving calcium ionophore-induced LTB4 biosynthesis expressed human whole blood. Human heparinized whole blood was preincubated with test compounds or vehicle for 15 min at 37° C. followed by calcium ionophore A23187 challenge (final concentration of 8.3 μM) and the reaction terminated after 30 min by adding two volumes of methanol containing prostaglandin B2 as an internal recovery standard. The methanol extract was analyzed for LTB4 using a commercially available radioimmunoassay.
In Vitro Inhibitory Potencies of Compounds
of this Invention Against 5-Lipoxygenase from
Stimulated LTB4 Formation in Human Whole Blood

[1] = human whole blood, read-out: In vitro inhibition of 5-lipoxygenase / stimulated LTB4 formation (% printed under head "IC50 (10^-6 M)")

Compound: CO/N=C(\c1cc(F)cc(OCc2ccc(N(C)C(=O)N(C)C)cc2)c1)[C@H]1COC(C)(C)O1 [Example 1, E-(4S)-O-methyl-2,2-dimethyl-4-[(5-fluoro-3-(4-(N',N'-dimethylaminocarbonyl-N-methylamino)benzyloxy)phenyl)oximinomethyl]-1,3-dioxolane]
inhibition at 0.1 µM [1]: 100%

Compound: CO/N=C(\c1cc(F)cc(OCc2ccc(N(C)C(C)=O)cc2)c1)[C@H]1COC(C)(C)O1 [Example 2, E-(4S)-O-methyl-2,2-dimethyl-4-[(5-fluoro-3-(4-(N-acetyl-N-methylamino)benzyloxy)phenyl)oximinomethyl]-1,3-dioxolane]
inhibition at 0.2 µM (@ 0.20 μM, human whole blood, read-out: In vitro inhibition of 5-lipoxygenase / stimulated LTB4 formation (% printed under head "IC50 (10^-6 M)")): 82%

Compound: C=CCN(C)c1ccc(Sc2cccc(/C(=N\OC)[C@H]3COC(C)(C)O3)c2)cc1 [Example 3 (E oxime), E-(4S)-O-methyl-2,2-dimethyl-4-[(3-(4-(N-allyl-N-methylamino)phenylthioxyl)phenyl)oximinomethyl]-1,3dioxolane]
IC50 (stimulated LTB4 formation in human whole blood, read-out: IC50 (10^-6 M)): 50 nM

Other lines, results leading:

inhibition at 6.25 µM [1]: 99%
Compound: C=CCN(C)c1ccc(Sc2cccc(/C(=N/OC)[C@H]3COC(C)(C)O3)c2)cc1 [Example 3 (Z oxime), Z-(4S)-O-Methyl-2,2-dimethyl-4-[(3-(4-(N-allyl-N-methylamino)phenylthioxyl)phenyl)oximinomethyl]-1,3-dioxolane]

inhibition at 6.25 µM [1]: 100%
Compound: CO/N=C(/c1cccc(Sc2ccc(N(C)C(=O)N(C)C)cc2)c1)[C@H]1COC(C)(C)O1 [Example 4, Z-(4S)-O-methyl-2,2-dimethyl-4-[(3-(4-(N',N'-dimethylaminocarbonyl-N-methylamino)phenylthioxyl)phenyl)oximinomethyl]-1,3-dioxolane]

inhibition at 0.78 µM (@ 0.78 μM, human whole blood, read-out: In vitro inhibition of 5-lipoxygenase / stimulated LTB4 formation (% printed under head "IC50 (10^-6 M)")): 100%
Compound: CO/N=C(\c1cccc(Sc2ccc(N(C)C(=O)N(C)C)cc2)c1)[C@H]1COC(C)(C)O1 [Example 5, E-(4S)-O-methyl-2,2-dimethyl-4-[(3-(4-(N',N': dimethylaminocarbonyl-N-methylamino)phenylthioxyl)phenyl)oximinomethyl]-1,3: dioxolane]

inhibition at 0.1 µM [1]: 49%
Compound: COC[C@@H](OC)[C@@H](OC)c1cc(F)cc(OCc2ccc(N(C)C(=O)N(C)C)cc2)c1 [Example 14, anti-(1S, 2R)-1-[(5-fluoro-3-(4-(N', N'-dimethylaminocarbonyl-N-methylamino)benzyloxy)phenyl)]-1,2,3-trimethoxypropane]
